Target: Kappa-type opioid receptor (Cavia porcellus, UniProt P41144)
Assay: Compound was tested for the inhibitory concentration against opioid receptor kappa by using [3H]bremazocine as radioligand in guinea pig brain; No inhibition; call rule not given here

Sequence of Kappa-type opioid receptor (P41144 whole entry): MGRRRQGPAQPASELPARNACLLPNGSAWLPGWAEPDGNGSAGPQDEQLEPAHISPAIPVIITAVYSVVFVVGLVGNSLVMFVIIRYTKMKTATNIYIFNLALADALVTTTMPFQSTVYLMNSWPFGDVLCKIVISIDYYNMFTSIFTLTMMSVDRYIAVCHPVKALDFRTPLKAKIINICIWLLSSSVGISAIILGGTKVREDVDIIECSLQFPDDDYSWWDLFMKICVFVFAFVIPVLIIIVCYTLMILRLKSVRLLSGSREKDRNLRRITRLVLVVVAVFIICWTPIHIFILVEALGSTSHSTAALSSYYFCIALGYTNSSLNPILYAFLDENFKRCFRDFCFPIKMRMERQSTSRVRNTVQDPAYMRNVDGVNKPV

`Clc1ccc(CCN[C@@H]2CCCC[C@@H]2N2CCCC2)cc1Cl` was tested, and the Ki was “Not Active”.

— ChEMBL document CHEMBL1125772, “Synthesis and receptor binding of enantiomeric N-substituted cis-N-[2-(3,4-dichlorophenyl)ethyl]-2-(1-pyrrolidinyl)cyclohexylamines as high-affinity sigma receptor ligands” (J Med Chem, 1991)
